Test results: ChEMBL document CHEMBL1136840 (Bioorg Med Chem Lett, 2009)

Molecular target: T1, Carbonic anhydrase 15 (Mus musculus, UniProt Q99N23)
T1 sequence (Q99N23 whole entry): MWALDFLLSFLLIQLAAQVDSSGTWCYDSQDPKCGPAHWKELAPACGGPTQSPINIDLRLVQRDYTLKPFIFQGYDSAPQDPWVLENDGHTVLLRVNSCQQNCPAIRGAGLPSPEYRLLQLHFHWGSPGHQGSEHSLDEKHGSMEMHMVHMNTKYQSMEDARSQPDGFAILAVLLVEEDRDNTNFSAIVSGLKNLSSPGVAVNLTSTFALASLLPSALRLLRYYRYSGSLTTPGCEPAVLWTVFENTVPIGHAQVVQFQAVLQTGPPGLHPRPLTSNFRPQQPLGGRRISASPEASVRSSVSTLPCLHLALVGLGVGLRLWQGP

NS(N)(=O)=O [SULFAMIDE]
Ki: 37.4 µM
